We go through one compound from US20240285634A1, “COMPOUND AND METHOD FOR TREATING CHEMOTHERAPY-ASSOCIATED GASTROINTESTINAL SIDE EFFECTS” (ONQUALITY PHARMACEUTICALS CHINA LTD., priority 2021, published 2024).

Experiment [1] relates to Chemotherapeutic agent-caused diarrhea models of Balb/c mice. The experiment is described as follows: Relieving effect on diarrhea caused by a chemotherapeutic agent (Examples 1-201). Type of experiment: in vivo. The text has this: Construction of mouse animal models: Chemotherapeutic agent-caused diarrhea models of Balb/c mice were constructed according to the administration mode and frequency of the chemotherapeutic agent as shown in Table 3. After administration for several days, mice developed different extents of diarrhea symptoms (as shown in FIG. 1), which were similar to the conditions in human. Thus, chemotherapeutic agent-caused diarrhea models of mice are very good models to mimic diarrhea in human caused by the chemotherapeutic agent.
Balb/c mice were fed for 1 week, and then divided into groups. The experiment was divided into a control group, a chemotherapeutic agent group, and a group of the compound as shown in Formula I, each of which comprised 10 mice, to perform the administration experiment, for which the administration dosage, mode, time and frequency were shown in Table 3. The control group: being injected or intragastrically administered with the same solvent as that used in the group of the compound as shown in Formula I (the injection mode and time were shown in Table 3), and then being injected or intragastrically administered with the same solvent as that used in the chemotherapeutic agent group (the administration mode was shown in Table 3); the chemotherapeutic agent group: being injected or intragastrically administered with the same solvent as that used in the group of the compound as shown in Formula I (the administration mode and time were shown in Table 3), and then being injected or intragastrically administered with the chemotherapeutic agent (the type, administration mode and dosage were shown in Table 3); the group of the compound as shown in Formula I: being injected or intragastrically administered with the compound as shown in Formula I (the administration mode and time were shown in Table 3), and then being administered with the chemotherapeutic agent (the administration mode and dosage were shown in Table 3).
The scoring of diarrhea can refer to the method of Akinobu Kurita (Cancer Chemother Pharmacol 2000; 46:211-20.), Grade 0: normal feces; Grade 1: mild diarrhea, the stools is slightly wet and soft; Grade 2: moderate diarrhea, loose stools and mild perianal contamination; Grade 3: severe diarrhea, watery stools and accompanied by severe perianal staining (see FIG. 1). It is regarded as effective remission when the diarrhea grading of mice in the group of the compound as shown in Formula I is reduced compared with the average diarrhea grading of mice in the chemotherapeutic agent group.
The diarrhea grading of mice was observed and recorded every day. At the end of the experiment, the number of mice in the group of the compound as shown in Formula I whose diarrhea grading was lower than that of mice in the chemotherapeutic agent group was recorded. Table 3 lists various animal experiment combinations of chemotherapeutic agents and the compound as shown in Formula I, as well as the corresponding experimental results. (Relative remission rate %=the number of mice in the group of the compound as shown in Formula I whose diarrhea has been effectively relieved/the total number of mice in the group of the compound as shown in Formula I*100%. The establishment rate of diarrhea model in the chemotherapeutic agent group was 50%-70%, that is, about 5-7 of 10 mice developed diarrhea during the experiment, and there were cases of individual mice death or not developing diarrhea.)

Experiment [2] deals with Chemotherapeutic agent-caused constipation models of Balb/c mice. The experiment is described as follows: Relieving effect on constipation caused by a chemotherapeutic agent (Examples 202-364). Format: in vivo. Particulars: compound intraperitoneal injection 150 mg/kg single. The text has this: Construction of mouse animal models: Chemotherapeutic agent-caused constipation models of Balb/c mice were constructed according to the administration mode and frequency of the chemotherapeutic agent as shown in Table 4. […] Thus, chemotherapeutic agent-caused constipation models of mice are very good models to mimic constipation caused by the chemotherapeutic agent.
Balb/c mice were fed for 1 week, and then divided into groups. The experiment was divided into a control group, a chemotherapeutic agent group, and a group of the compound as shown in Formula I, each of which comprised 10 mice, to perform the administration experiment, for which the administration dosage, mode, time and frequency were shown in Table 4. The control group: being injected or intragastrically administered with the same solvent as that used in the group of the compound as shown in Formula I (the administration mode and time were shown in Table 4), and then being injected or intragastrically administered with the same solvent as that used in the chemotherapeutic agent group (the administration mode was shown in Table 4); the chemotherapeutic agent group: being injected or intragastrically administered with the same solvent as that used in the group of the compound as shown in Formula I (the administration mode and time was shown in Table 4), and then being injected or intragastrically administered with the chemotherapeutic agent (the type, administration mode and dosage were shown in Table 4); the group of the compound as shown in Formula I: being injected or intragastrically administered with the compound as shown in Formula I (the administration mode and time was shown in Table 4), and then being administered with the chemotherapeutic agent (the administration mode and dosage were shown in Table 4).
The feces reduction rate was calculated with reference to the method of Ji Eun Kim (Lab Anim Res. 2016 December; 32(4): 231-240.). Feces reduction rate (%)=(the control group−the chemotherapeutic agent group or the group of the compound as shown in Formula I)/the control group*100%
It is regarded as effective remission when the feces reduction rate of mice in the group of the compound as shown in Formula I is reduced compared with that in the chemotherapeutic agent group.
The feces amount of mice within 3 hours was observed and recorded every day. At the end of the experiment, the number of mice in the group of the compound as shown in Formula I whose feces reduction rate was lower than that of mice in the chemotherapeutic agent group was recorded. Table 4 lists various animal experiment combinations of chemotherapeutic agents and the compound as shown in Formula I, as well as the corresponding experimental results.

Structures can show the parent of a compound that is named as a salt.

Regarding `CN1CCN(c2ccc(Nc3ncc4cc5n(c4n3)C3(CCCCC3)CNC5=O)nc2)CC1` [Compound I hydrochloride, Trilaciclib dihydrochloride], the Relative remission rate in experiment [1] (Ex 132, Fluorouracil 100 + irinotecan 200 mg/kg intraperitoneal single, compound 150 mg/kg intraperitoneal single 0.5 h before, cycle 8 days) amounted to 30%; in experiment [1] (Ex 133, Fluorouracil 100 + irinotecan 200 mg/kg intraperitoneal single, compound 150 mg/kg intraperitoneal single 6 h before, cycle 8 days) it was 60%; in experiment [1] (Ex 134, Fluorouracil 100 + irinotecan 200 mg/kg intraperitoneal single, compound 150 mg/kg intraperitoneal single 12 h before, cycle 8 days) it was 50%; in experiment [1] (Ex 161, Fluorouracil 50 + oxaliplatin 5 + irinotecan 50 + tetrahydrofolic acid 90 mg/kg intraperitoneal single, compound 150 mg/kg intraperitoneal single 0.5 h before, cycle 7 days), 70%; in experiment [1] (Ex 162, Fluorouracil 50 + oxaliplatin 5 + irinotecan 50 + tetrahydrofolic acid 90 mg/kg intraperitoneal single, compound 150 mg/kg intraperitoneal single 12 h before, cycle 7 days), 40%; in experiment [1] (Ex 194, Topotecan 10 mg/kg intraperitoneal single, compound 100 mg/kg oral single 4 h before, cycle 14 days), 50%. Besides, the Relative remission rate in experiment [1] (Ex 200, Gemcitabine and carboplatin 120 mg/kg intraperitoneal single, compound 100 mg/kg oral single 4 h before, cycle 8 days) turned out to be 70%. The “Relative remission rate (%)” value in experiment [2] (Example 315, Fluorouracil 125 (F) and irinotecan 240 (I) mg/kg intraperitoneal injection single, 0.5 h before chemotherapeutic agent, cycle 10 days) came to 20%; in experiment [2] (Example 316, Fluorouracil 125 (F) and irinotecan 240 (I) mg/kg intraperitoneal injection single, 4 h before chemotherapeutic agent, cycle 10 days), 60%; in experiment [2] (Example 317, Fluorouracil 125 (F) and irinotecan 240 (I) mg/kg intraperitoneal injection single, 12 h before chemotherapeutic agent, cycle 10 days), 40%; in experiment [2] (Example 343, Fluorouracil 100 (F), oxaliplatin 5 (O), irinotecan 100 (I) and tetrahydrofolic acid 100 (L) mg/kg intravenous injection single, 0.5 h before chemotherapeutic agent, cycle 8 days), 30%; in experiment [2] (Example 344, Fluorouracil 100 (F), oxaliplatin 5 (O), irinotecan 100 (I) and tetrahydrofolic acid 100 (L) mg/kg intravenous injection single, 12 h before chemotherapeutic agent, cycle 8 days), 70%.
